The numbers were not newly measured in US20100255099A1, “CLAVULANATE FORMULATION FOR NEUROPROTECTION AND TREATMENT OF NEURODEGENERATIVE DISORDERS” (REXAHN PHARMACEUTICALS, INC., priority 2007, published 2010), which cites them from elsewhere.

The conditions of data set [1]: doses ranging from 10 ng to 10 μg/kg (i.p.); cited from earlier work.
The conditions of data set [2]: administered i.p. at less than 1 μg/kg; cited from earlier work.
The conditions of data set [3]: rats, i.p. dose of 1 μg/kg; cited from earlier work.

Each structure is given as a SMILES string.

Regarding `O=C(O)[C@H]1/C(=C/CO)O[C@@H]2CC(=O)N21` [clavulanic acid], in data set [1], the “CNS activity and behavior” value was “alter CNS activity and behavior”. Besides, the anxiolytic activity result in data set [2] is reported as “anxiolytic activity”. Also, in data set [3], the neuroprotectant activity result is “potent neuroprotectant activity”.
